Test results: patent US20240400572A1, “COMPOUNDS AND METHODS FOR TREATING CANCERS THAT ARE MGMT DEFICIENT REGARDLESS OF MMR STATUS” (Yale University, priority 2021, published 2024)
Where “and” joins values, the source holds several entries; their conditions need not be identical. Equal entries are not always repeated. Where two headings read alike, the source gives them in different places.

Assay: Brain distribution study
Type: in vivo, male C57BL/6 mice
Description: Compound KL50 dosing solution: 3.39% DMSO+96.61% (10% HP-β-CD in saline) at 2 mg/mL; • 1) Weigh 17.39 mg of compound KL50 into a clean tube. • 2) Add 0.295 mL DMSO into the tube containing the compound. • 3) Vortex the tube for 3 min and sonicate it for 4 min. • 4) Add 8.400 mL 10% HP-β-CD in saline into the tube and vortex the tube for 3 min. Compound I-1 dosing solution: 3.39% DMSO+96.61% (10% HP-β-CD in saline) at 2 mg/mL; • 1) Weigh 16.86 mg Compound I-1 into a clean tube. • 2) Add 0.286 mL DMSO into the tube containing the compound. • 3) Vortex the tube for 3 min and sonicate it for 4 min. • 4) Add 8.144 mL 10% HP-β-CD in saline into the tube and vortex the tube for 3 min.
The in-vivo pharmacokinetic and brain distribution study was conducted under the following parameters. Twenty seven C57BL/6 male mice were purchased from Shanghai JiHui Laboratory Animal Co. LTD. Each mouse weighted from 16 g to 17 g. The mice were fasted overnight and fed post 4 hr sampling. Compound KL50 and Compound I-I were administered via oral gavage (PO) at a dose of 20 mg/kg (10 mL/kg). After dosing, sampling was completed at 0.083, 0.167, 0.333, 0.5, 0.75, 1, 2, 4 and 8 hr post dose, with three mice sacrificed at each time point.
Terminal bleeding for plasma and brain was completed at each time point. Approximately 110 μL blood per time point was collected into a K2EDTA tube via the facial vein. The blood sample was put on wet ice and centrifuged to obtain plasma sample (2000 g, 5 min under 4° C.) within 15 minutes. Plasma samples were acidified with 6 μL of formic acid for every 54 μL of plasma. After blood collection, a mid-line incision was made in the animal's scalp and the skin was retracted. The skull overlying the brain was removed. Then, the whole brain was collected, rinsed with cold saline, dried on filtrate paper, and weighed; and then snap frozen by placing the brain into dry-ice. Plasma samples were stored at approximately −70° C. until analysis. Brain tissue was homogenized with 3 volumes (v/w) of PBS (1% FA) and then analyzed with LC-MS/MS. The concentration of study drug was corrected with a dilution factor of four as following: Brain concentration=brain homogenate conc.×4, assuming 1 g wet brain tissue equals to 1 mL

[1] = PO 20 mg/kg, male C57BL/6 mice, 0.083 hr, 20 mg/kg
[2] = PO 20 mg/kg, male C57BL/6 mice, 0.167 hr, 20 mg/kg
[3] = PO 20 mg/kg, male C57BL/6 mice, 0.333 hr, 20 mg/kg
[4] = PO 20 mg/kg, male C57BL/6 mice, 0.5 hr, 20 mg/kg
[5] = PO 20 mg/kg, male C57BL/6 mice, 0.75 hr, 20 mg/kg
[6] = PO 20 mg/kg, male C57BL/6 mice, 1 hr, 20 mg/kg
[7] = PO 20 mg/kg, male C57BL/6 mice, 2 hr, 20 mg/kg
[8] = PO 20 mg/kg, male C57BL/6 mice, 4 hr
[9] = PO 20 mg/kg, male C57BL/6 mice, 8 hr
[10] = brain, PO 20 mg/kg, male C57BL/6 mice
[11] = mouse, brain, PO 20 mg/kg, male C57BL/6 mice

Structure (SMILES): CNC(=O)c1ncn2c(=O)n(CCF)nnc12 [Compound I-1, 3-(2-fluoroethyl)-N-methyl-4-oxo-3H,4H-imidazo[4,3-d][1,2,3,5]tetrazine-8-carboxamide]
- Brain Concentration/Plasma Concentration, Individuals [1]: 0.310 and 0.329
- brain Concentration, Individuals [1]: 6300 ng/g and 6740 ng/g
- Brain Concentration/Plasma Concentration, Individuals [2]: 0.473 and 0.549
- brain Concentration, Individuals [2]: 7100 ng/g and 9110 ng/g
- Brain Concentration/Plasma Concentration, Individuals [3]: 0.606 and 0.651
- brain Concentration, Individuals [3]: 6850 ng/g and 8730 ng/g
- Brain Concentration/Plasma Concentration, Individuals [4]: 0.677 and 0.522
- brain Concentration, Individuals [4]: 4770 ng/g and 3750 ng/g
- Brain Concentration/Plasma Concentration, Individuals [5]: 0.623 and 0.560
- brain Concentration, Individuals [5]: 2500 ng/g and 1920 ng/g
- Brain Concentration/Plasma Concentration, Individuals [6]: 0.626 and 0.527
- brain Concentration, Individuals [6]: 952 ng/g and 1280 ng/g
- Brain Concentration/Plasma Concentration, Individuals [7]: 0.483 and 0.490
- brain Concentration, Individuals [7]: 155 ng/g and 345 ng/g and 90.6 ng/g
- brain Concentration, Individuals (below limit) [8]: BQL (Below the quantifiable limit of 1.00 ng/mL or ng/g for Compound I-1 in mouse plasma and brain homogenate)
- brain Concentration, Mean (below limit) [8]: BQL (Below the quantifiable limit of 1.00 ng/mL or ng/g for Compound I-1 in mouse plasma and brain homogenate)
- brain Concentration, Individuals (below limit) [9]: BQL (Below the quantifiable limit of 1.00 ng/mL or ng/g for Compound I-1 in mouse plasma and brain homogenate)
- brain Concentration, Mean (below limit) [9]: BQL (Below the quantifiable limit of 1.00 ng/mL or ng/g for Compound I-1 in mouse plasma and brain homogenate)
- AUCINF [10]: 4849 ng·h/g
- AUClast [10]: 4749 ng·h/g
- concentration at 0.083 hr (male, C57BL/6, mouse, brain, po, 20 mg/kg, PO 20 mg/kg, male C57BL/6 mice, 0.083 hr, N=3, read-out: brain Concentration, Mean): 6300 ng/g
- concentration at 0.083 hr (male, C57BL/6, mouse, brain, po, 20 mg/kg, PO 20 mg/kg, male C57BL/6 mice, 0.083 hr, read-out: brain Concentration, Individuals): 5860 ng/g
- concentration at 0.167 hr (male, C57BL/6, mouse, brain, po, 20 mg/kg, PO 20 mg/kg, male C57BL/6 mice, 0.167 hr, N=3, read-out: brain Concentration, Mean): 7210 ng/g
- concentration at 0.167 hr (male, C57BL/6, mouse, brain, po, 20 mg/kg, PO 20 mg/kg, male C57BL/6 mice, 0.167 hr, read-out: brain Concentration, Individuals): 5420 ng/g
- concentration at 0.333 hr (male, C57BL/6, mouse, brain, po, 20 mg/kg, PO 20 mg/kg, male C57BL/6 mice, 0.333 hr, N=3, read-out: brain Concentration, Mean): 6840 ng/g
- concentration at 0.333 hr (male, C57BL/6, mouse, brain, po, 20 mg/kg, PO 20 mg/kg, male C57BL/6 mice, 0.333 hr, read-out: brain Concentration, Individuals): 4950 ng/g
- concentration at 0.5 hr (male, C57BL/6, mouse, brain, po, 20 mg/kg, PO 20 mg/kg, male C57BL/6 mice, 0.5 hr, N=3, read-out: brain Concentration, Mean): 3940 ng/g
- concentration at 0.5 hr (male, C57BL/6, mouse, brain, po, 20 mg/kg, PO 20 mg/kg, male C57BL/6 mice, 0.5 hr, read-out: brain Concentration, Individuals): 3310 ng/g
- concentration at 0.75 hr (male, C57BL/6, mouse, brain, po, 20 mg/kg, PO 20 mg/kg, male C57BL/6 mice, 0.75 hr, N=3, read-out: brain Concentration, Mean): 2240 ng/g
- concentration at 0.75 hr (male, C57BL/6, mouse, brain, po, 20 mg/kg, PO 20 mg/kg, male C57BL/6 mice, 0.75 hr, read-out: brain Concentration, Individuals): 2290 ng/g
- concentration at 1 hr (male, C57BL/6, mouse, brain, po, 20 mg/kg, PO 20 mg/kg, male C57BL/6 mice, 1 hr, N=3, read-out: brain Concentration, Mean): 1120 ng/g
- concentration at 1 hr (male, C57BL/6, mouse, brain, po, 20 mg/kg, PO 20 mg/kg, male C57BL/6 mice, 1 hr, read-out: brain Concentration, Individuals): 1140 ng/g
- concentration at 2 hr (male, C57BL/6, mouse, brain, po, 20 mg/kg, PO 20 mg/kg, male C57BL/6 mice, 2 hr, N=3, read-out: brain Concentration, Mean): 197 ng/g
- Kp (male, C57BL/6, mouse, brain/plasma, po, 20 mg/kg, AUCbrain/AUCplasma, PO 20 mg/kg, male C57BL/6 mice, heading: AUCbrain/AUCplasma): 49.1%
- Kp at 0.083 hr (male, C57BL/6, mouse, brain/plasma, po, 20 mg/kg, PO 20 mg/kg, male C57BL/6 mice, 0.083 hr, N=3, read-out: Brain Concentration/Plasma Concentration, Mean): 0.305
- Kp at 0.083 hr (male, C57BL/6, mouse, brain/plasma, po, 20 mg/kg, PO 20 mg/kg, male C57BL/6 mice, 0.083 hr, read-out: Brain Concentration/Plasma Concentration, Individuals): 0.276
- Kp at 0.167 hr (male, C57BL/6, mouse, brain/plasma, po, 20 mg/kg, PO 20 mg/kg, male C57BL/6 mice, 0.167 hr, N=3, read-out: Brain Concentration/Plasma Concentration, Mean): 0.501
- Kp at 0.167 hr (male, C57BL/6, mouse, brain/plasma, po, 20 mg/kg, PO 20 mg/kg, male C57BL/6 mice, 0.167 hr, read-out: Brain Concentration/Plasma Concentration, Individuals): 0.48
- Kp at 0.333 hr (male, C57BL/6, mouse, brain/plasma, po, 20 mg/kg, PO 20 mg/kg, male C57BL/6 mice, 0.333 hr, N=3, read-out: Brain Concentration/Plasma Concentration, Mean): 0.606
- Kp at 0.333 hr (male, C57BL/6, mouse, brain/plasma, po, 20 mg/kg, PO 20 mg/kg, male C57BL/6 mice, 0.333 hr, read-out: Brain Concentration/Plasma Concentration, Individuals): 0.561
- Kp at 0.5 hr (male, C57BL/6, mouse, brain/plasma, po, 20 mg/kg, PO 20 mg/kg, male C57BL/6 mice, 0.5 hr, N=3, read-out: Brain Concentration/Plasma Concentration, Mean): 0.575
- Kp at 0.5 hr (male, C57BL/6, mouse, brain/plasma, po, 20 mg/kg, PO 20 mg/kg, male C57BL/6 mice, 0.5 hr, read-out: Brain Concentration/Plasma Concentration, Individuals): 0.525
- Kp at 0.75 hr (male, C57BL/6, mouse, brain/plasma, po, 20 mg/kg, PO 20 mg/kg, male C57BL/6 mice, 0.75 hr, N=3, read-out: Brain Concentration/Plasma Concentration, Mean): 0.586
- Kp at 0.75 hr (male, C57BL/6, mouse, brain/plasma, po, 20 mg/kg, PO 20 mg/kg, male C57BL/6 mice, 0.75 hr, read-out: Brain Concentration/Plasma Concentration, Individuals): 0.575
- Kp at 1 hr (male, C57BL/6, mouse, brain/plasma, po, 20 mg/kg, PO 20 mg/kg, male C57BL/6 mice, 1 hr, N=3, read-out: Brain Concentration/Plasma Concentration, Mean): 0.559
- Kp at 1 hr (male, C57BL/6, mouse, brain/plasma, po, 20 mg/kg, PO 20 mg/kg, male C57BL/6 mice, 1 hr, read-out: Brain Concentration/Plasma Concentration, Individuals): 0.523
- Kp at 2 hr (male, C57BL/6, mouse, brain/plasma, po, 20 mg/kg, PO 20 mg/kg, male C57BL/6 mice, 2 hr, N=3, read-out: Brain Concentration/Plasma Concentration, Mean): 0.468
- Kp at 2 hr (male, C57BL/6, mouse, brain/plasma, po, 20 mg/kg, PO 20 mg/kg, male C57BL/6 mice, 2 hr, read-out: Brain Concentration/Plasma Concentration, Individuals): 0.432
- Cmax [11]: 7210 ng/g
- MRT inf [11]: 31.6 min
- Tmax [11]: 10 min
- half-life [11]: 21.1 min
- concentration in brain tissue compared with KL50 (in words) (oral administration to mice): much larger concentration in brain tissue
